Reference: publication PMC6881072, “The repositioning of epigenetic probes/inhibitors identifies new anti-schistosomal lead compounds and chemotherapeutic targets” (PLoS Neglected Tropical Diseases, 2019)
“Also recorded” adds a separate entry of the source. Where two headings read alike, the source gives them in different places.

Columns and labels:
S. mansoni schistosomula = experiment: In vitro schistosomula screening (Roboworm platform), phenotype and motility; assay type: cell-based, Schistosoma mansoni; details: for hit / activity against schistosomula, single-point screen: hit cut-offs phenotype -0.15, motility -0.35; for EC50: Schistosoma mansoni
Experimental: Briefly, 384-well tissue culture plates (Perkin Elmer, cat 6007460), containing 20 μl of Basch medium, were wet-stamped using a Biomek NX^P liquid handling platform (Beckman Coulter, UK) with negative (0.625% dimethyl sulfoxide, DMSO) and positive controls (AUR and PZQ at 10 μM final concentration in 0.625% DMSO) as well as 37 SGC compounds (at 10 μM final concentration in 0.625% DMSO). […] To each pre-loaded well (single concentration or titration screens), a total of 100–120 mechanically transformed schistosomula (in 60 μl) were deposited via a WellMate (Thermo Scientific, UK). Schistosomula/compound co-cultures (80 μl in total) were then incubated at 37°C for 72 h in a humidified atmosphere containing 5% CO2. At 72 h, tissue culture plates (containing schistosomula/compound co-cultures) were imaged under the same conditions (37°C in a humidified atmosphere containing 5% CO2) using an ImageXpressXL high content imager (Molecular Devices, UK) with subsequent images processed for phenotype and motility as previously reported and successfully implemented by us at Aberystwyth University. Single point schistosomula screens (10 μM) were repeated two or three times whereas dose response titrations were performed once. Zˊ values obtained from all schistosomula screens ranged from 0.27–0.48 (mean = 0.40) for phenotype and 0.41–0.56 (mean = 0.48) for motility.

[1] = system: adult male and female schistosome pairs; experiment: In vitro adult schistosome screening (WHO/TDR motility, egg counts); assay type: cell-based, Schistosoma mansoni; details: for EC50: Schistosoma mansoni, 72 h
Experimental: In vitro screening was replicated three times on different dates to account for any biological variation. Briefly three adult worm pairs/well (48-well tissue culture plate format) were placed into DMEM (Gibco, Paisley, UK) supplemented with 10% (v/v) FCS (Gibco, Paisley, UK), 1% (v/v) L-glutamine (Gibco, Paisley, UK) and an antibiotic mixture (150 Units/ml penicillin and 150 μg/ml streptomycin; Gibco, UK). DMSO (0.5% negative control), AUR (10 μM concentration in 0.5% DMSO; positive control) and two-fold titrations of SGC compounds (50 μM– 6.25 μM or 50 μM– 0.05 μM; in 0.5% DMSO max) were added, and together, these adult worm/compound co-cultures were incubated at 37°C for 72 h in a humidified atmosphere containing 5% CO2. Following compound incubation, WHO/TDR readouts of adult worm motility, abundance of H3K36me2 (LLY-507 and BAY-598 treated worms only) in histone extracts and egg counts/well were recorded at 72 h.

[2] = HepG2 cell cytotoxicity, MTT assay; assay type: cell-based, Human; details: human, read-out: CC50 (HepG2) (95% Confidence Intervals)
Experimental: Human Hepatocyte Carcinoma (HepG2) cells (Sigma Aldrich, UK) were utilized to assess SGC epigenetic probe cell cytotoxicity in the application of the MTT (3-(4,5-dimethylthiazol-2-yl)-2,5-diphenyltetrazolium bromide) assay. Briefly, cells were passaged at 70–80% confluence and seeded (20,000 cells/ 50 μL per well) in a 96-well, black-sided, clear-bottomed falcon plate (Fisher Scientific, UK) with the final plate column (8 wells) being treated as a blank (media only). Following a 24 h incubation (5% CO2, 37°C, humidified), HepG2 cells were then treated with 50 μL of pre-warmed media (37°C) containing SGC EPs/EIs at 200 μM to 0.02 μM (final concentration 100 μM, 10 μM, 1 μM, 0.1 μM and 0.01 μM). Three positive (1% Triton X-100) and negative (1% DMSO) control wells per plate were additionally included.
After addition of compounds, each plate was then incubated for a further 20 h before application of MTT for assessment of overt compound cytotoxicity using the MTT assay. The MTT assay was read using the POLARstar Omega (BMG LabTech, UK) plate reader at an absorbance of 570 nm. CC50s were calculated in GraphPad Prism.

[3] = CC50 HepG2 / schistosomula motility EC50
[4] = CC50 HepG2 / schistosomula phenotype EC50
[5] = 72 h, read-out: SCHISTOSOMULA EC50 Motility
[6] = 72 h, read-out: SCHISTOSOMULA EC50 Phenotype
[7] = read-out: ADULT EC50 (95% Confidence Intervals) Females
[8] = read-out: ADULT EC50 (95% Confidence Intervals) Males
[9] = 72 h, two-fold titration 10 μM–0.625 μM, single replicate, approximate, read-out: SCHISTOSOMULA EC50 Motility
[10] = 72 h, two-fold titration 10 μM–0.625 μM, single replicate, approximate, read-out: SCHISTOSOMULA EC50 Phenotype
[11] = motility, adult females, read-out: ADULT EC50 (95% Confidence Intervals) Females
[12] = motility, adult males, read-out: ADULT EC50 (95% Confidence Intervals) Males

CCOC(=O)CCNc1cc(N2CCc3ccccc3CC2)nc(-c2cccnc2)n1 [GSKJ5]
hit / activity against schistosomula, single-point screen (S. mansoni schistosomula; 10 μM, 72 h): None of these chemotype controls demonstrated anti-schistosomula activity

Cc1sc2c(c1C)C(c1ccc(Cl)cc1)=N[C@@H](CC(=O)OC(C)(C)C)c1nnc(C)n1-2 [JQ1, [(S)-4-(4-Chloro-phenyl)-2,3,9-trimethyl-6H-1-thia-5,7,8,9a-tetraaza-cyclopenta[e]azulen-6-yl]-acetic acid tert-butyl este]
SELECTIVITY INDEX Schistosomula Motility (S. mansoni schistosomula; [3]): 5.53 | SELECTIVITY INDEX Schistosomula Phenotype (S. mansoni schistosomula; [4]): 3.56 | EC50 (S. mansoni schistosomula; [5]): 3.04 µM | EC50 (S. mansoni schistosomula; [6]): 4.72 µM | SELECTIVITY INDEX Adult Females ([1]; CC50 HepG2 / adult female EC50): 0.73 | SELECTIVITY INDEX Adult Males ([1]; CC50 HepG2 / adult male EC50): 0.92 | EC50 [1, 7]: 22.8 µM | EC50 [1, 8]: 18.3 µM | CC50 at 20 h [2]: 16.8 µM

O=C(/C=C/c1ccc(CN(CCO)CCc2c[nH]c3ccccc23)cc1)NO [LAQ824]
hit / activity against schistosomula, single-point screen (S. mansoni schistosomula; 10 μM, 72 h): hit | SELECTIVITY INDEX Schistosomula Motility (S. mansoni schistosomula; [3]): 6.40 | SELECTIVITY INDEX Schistosomula Phenotype (S. mansoni schistosomula; [4]): 7.04 | EC50 (S. mansoni schistosomula; [9]): 2.45 µM | EC50 (S. mansoni schistosomula; [10]): 2.22 µM | SELECTIVITY INDEX Adult Females ([1]; CC50 HepG2 / adult female EC50): 0.95 | SELECTIVITY INDEX Adult Males ([1]; CC50 HepG2 / adult male EC50): 0.63 | EC50 [1, 11]: 16.5 µM | EC50 [1, 12]: 25 µM | CC50 at 20 h ([2]; HepG2 cells): 15.6 µM

CCCc1cc(C)n(C)c(=O)c1CN(C)C(=O)c1cc(-c2ccc(N3CCN(C(C)C)CC3)nc2)cc2c1cnn2C(C)C [UNC2400]
hit / activity against schistosomula, single-point screen (S. mansoni schistosomula; 10 μM, 72 h): None of these chemotype controls demonstrated anti-schistosomula activity

CCCc1cc(C)[nH]c(=O)c1CNC(=O)c1cc(-c2ccc(N3CCN(C(C)C)CC3)nc2)cc2c1cnn2C(C)C [UNC1999, N-[(6-methyl-2-oxo-4-propyl-1,2-dihydropyridin-3-yl)methyl]-1-(propan-2-yl)-6-{6-[4-(propan-2-yl)piperazin-1-yl]pyridin-3-yl}-1H-indazole-4-carboxamide]
hit / activity against schistosomula, single-point screen (S. mansoni schistosomula; 10 μM, 72 h): are hits against schistosomula | SELECTIVITY INDEX Schistosomula Motility (S. mansoni schistosomula; [3]): 11.16 | SELECTIVITY INDEX Schistosomula Phenotype (S. mansoni schistosomula; [4]): 7.48 | EC50 (S. mansoni schistosomula; [9]): 2.82 µM | EC50 (S. mansoni schistosomula; [10]): 4.2 µM | SELECTIVITY INDEX Adult Females ([1]; CC50 HepG2 / adult female EC50): 1.95 | SELECTIVITY INDEX Adult Males ([1]; CC50 HepG2 / adult male EC50): 2.32 | EC50 [1, 11]: 16.1 µM | EC50 [1, 12]: 13.5 µM | CC50 at 20 h ([2]; HepG2 cells): 31.4 µM

CCC(=O)N1CCOc2c(cc(-c3ccc(OC)c(OC)c3)cc2OC[C@H]2CCCN(C)C2)C1 [I-CBP112, 1-[7-(3,4-dimethoxyphenyl)-9-{[(3S)-1-methylpiperidin-3-yl]methoxy}-2,3,4,5-tetrahydro-1,4-benzoxazepin-4-yl]propan-1-one]
hit / activity against schistosomula, single-point screen (S. mansoni schistosomula; 10 μM, 72 h): did not

CC(=O)Nc1ccc(C(=O)Nc2ccccc2N)cc1 [CI-994]
hit / activity against schistosomula, single-point screen (S. mansoni schistosomula; 10 μM, 72 h): non-hit

CCCS(=O)(=O)c1nc(NC2CC2)cc(-c2ccc3c(ccn3C3CC(C)(C)NC(C)(C)C3)c2)n1 [NVS-CECR2-1, N-cyclopropyl-2-propylsulfonyl-6-[1-(2,2,6,6-tetramethylpiperidin-4-yl)indol-5-yl]pyrimidin-4-amine]
schistosomula phenotype by microscopic assessment (S. mansoni schistosomula; 10 μM, 72 h): phenotypes comparable to auranofin | SELECTIVITY INDEX Schistosomula Motility (S. mansoni schistosomula; [3]): 3.60 | SELECTIVITY INDEX Schistosomula Phenotype (S. mansoni schistosomula; [4]): 4.98 | EC50 (S. mansoni schistosomula; [5]): 2.5 µM | EC50 (S. mansoni schistosomula; [6]): 1.81 µM | SELECTIVITY INDEX Adult Females ([1]; CC50 HepG2 / adult female EC50): 1.73 | SELECTIVITY INDEX Adult Males ([1]; CC50 HepG2 / adult male EC50): 3.11 | EC50 [1, 7]: 5.21 µM | EC50 [1, 8]: 2.9 µM | CC50 at 20 h [2]: 9.03 µM

Clc1cc2c(NC3CCCC3)nnc(-c3ccncc3)c2cc1Cl [A-196, 8,9-dichloro-N-cyclopentyl-5-(pyridin-4-yl)-3,4-diaza-bicyclo[4.4.0]deca-1(10),2,4,6,8-pentaen-2-amine]
SELECTIVITY INDEX Schistosomula Motility (S. mansoni schistosomula; [3]): 10.45 | SELECTIVITY INDEX Schistosomula Phenotype (S. mansoni schistosomula; [4]): 36.00 | EC50 (S. mansoni schistosomula; [9]): 4.78 µM | EC50 (S. mansoni schistosomula; [10]): 1.39 µM | SELECTIVITY INDEX Adult Females ([1]; CC50 HepG2 / adult female EC50): 3.13 | SELECTIVITY INDEX Adult Males ([1]; CC50 HepG2 / adult male EC50): 2.24 | EC50 [1, 11]: 16 µM | EC50 [1, 12]: 22.3 µM | CC50 at 20 h ([2]; HepG2 cells): > 50 µM

CCn1cc(-c2cccc(C(F)(F)F)c2)c2sc(C(=N)NC3CCS(=O)(=O)CC3)cc2c1=O [I-BRD9, N-(1,1-dioxidotetrahydro-2H-thiopyran-4-yl)-5-ethyl-4-oxo-7-(3-(trifluoromethyl)phenyl)-4,5-dihydrothieno[3,2-c]pyridine-2-carboximidamide]
SELECTIVITY INDEX Schistosomula Motility (S. mansoni schistosomula; [3]): 7.61 | SELECTIVITY INDEX Schistosomula Phenotype (S. mansoni schistosomula; [4]): 24.44 | EC50 (S. mansoni schistosomula; [9]): 4.13 µM | EC50 (S. mansoni schistosomula; [10]): 1.29 µM | SELECTIVITY INDEX Adult Females ([1]; CC50 HepG2 / adult female EC50): 1.31 | SELECTIVITY INDEX Adult Males ([1]; CC50 HepG2 / adult male EC50): 1.10 | EC50 [1, 11]: 24 µM | EC50 [1, 12]: 28.5 µM | CC50 at 20 h ([2]; HepG2 cells): 31.4 µM

CC(C)Oc1ccc(-c2c[nH]cc2CN(C)CCN)cc1 [MS023, 3-(((2-amino-ethyl)-methyl-amino)-methyl)-4-(4-(1-methyl-ethoxy)-phenyl)-1H-pyrrole]
SELECTIVITY INDEX Schistosomula Motility (S. mansoni schistosomula; [3]): 2.52 | SELECTIVITY INDEX Schistosomula Phenotype (S. mansoni schistosomula; [4]): 4.14 | EC50 (S. mansoni schistosomula; [9]): 6.45 µM | EC50 (S. mansoni schistosomula; [10]): 3.92 µM | SELECTIVITY INDEX Adult Females ([1]; CC50 HepG2 / adult female EC50): 0.62 | SELECTIVITY INDEX Adult Males ([1]; CC50 HepG2 / adult male EC50): 0.62 | EC50 [1, 11]: 26.3 µM | EC50 [1, 12]: 26.2 µM | CC50 at 20 h ([2]; HepG2 cells): 16.2 µM

CCN(C(=O)CO)C1CN(C(=Nc2cccc(OC(F)F)c2)NC#N)N=C1c1ccccc1 (stereo not drawn) [BAY-369]
hit / activity against schistosomula, single-point screen (S. mansoni schistosomula; 10 μM, 72 h): None of these chemotype controls demonstrated anti-schistosomula activity; also recorded: is not

COc1ccc(CCc2nc3cc(-c4c(C)noc4C)ccc3n2CC(C)N2CCOCC2)cc1Cl (stereo not drawn) [SGC-CBP30, 8-(3-chloro-4-methoxy-phenethyl)-4-(3,5-dimethyl-isoxazol-4-yl)-9-(2-(morpholin-4-yl)-propyl)-7,9-diaza-bicyclo[4.3.0]nona-1(6),2,4,7-tetraene]
hit / activity against schistosomula, single-point screen (S. mansoni schistosomula; 10 μM, 72 h): demonstrated activity against schistosomula | S[…] Schistosomula Motility (S. mansoni schistosomula; [3]): 10.03 | S[…] Schistosomula Phenotype (S. mansoni schistosomula; [4]): 15.69 | EC50 (S. mansoni schistosomula; [9]): 4.99 µM | EC50 (S. mansoni schistosomula; [10]): 3.19 µM | S[…] Adult Females ([1]; CC50 HepG2 / adult female EC50): 1.6 | S[…] Adult Males ([1]; CC50 HepG2 / adult male EC50): 1.49 | EC50 [1, 11]: 31.2 µM | EC50 [1, 12]: 33.5 µM | CC50 at 20 h ([2]; HepG2 cells): > 50 µM
